Reference: patent US12624018B1, “Inhibitors of RIPK2 and medical uses thereof” (Odyssey Therapeutics, Inc., priority 2022, dated 2026)

Tests used:
RIPK2 enzyme = biological target: T1, RIPK2 enzyme (Homo sapiens, UniProt O43353); test: RIPK2 inhibition (ADP-Glo Kinase Assay); format: biochemical; settings: RIPK2 5 nM, ATP 150 μM, MBP substrate, read-out: RIPK2 IC50
T1 construct: purchased Carna 09-128
Summary of the method: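 Swine MBP substrate; compound and 5 nM RIPK2 first mixed for 30 min at room temperature; buffer pH 7.5 HEPES 50 mM with 10 mM MgCl2, 2 mM DTT, 1 mM EGTA, Brij-35, BSA.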

human NOD2 signaling = test: Inhibition of human NOD2 signaling in HEK-Blue-hNOD2 cells (L18-MDP stimulated, SEAP reporter); format: cell-based; settings: Homo sapiens, HEK-Blue hNOD2, HEK-Blue-hNOD2 cells, NOD2 ligand stimulation, SEAP reporter; read-out: hNOD2 IC50
Summary of the method: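 Read-out is SEAP absorbance at 620 nm after 3 h QUANTI-Blue development of supernatant from HEK293 cells carrying NOD2 and a SEAP reporter (12500/well). Cells got compound (10 points, 3-fold dilutions) and 0.5 ng/mL L18-MDP for 24 h at 37 °C; percent inhibition vs stimulated/unstimulated controls, 4-parameter IC50.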

[1] = system: TNF-alpha secretion in human whole blood; test: Inhibition of TNF-alpha secretion in human whole blood (IFN-gamma primed, L18-MDP stimulated); format: cell-based; settings: Homo sapiens, 16 h, L18-MDP 100 ng/mL, read-out: Human Whole Blood TNFα IC50
Procedure: Materials: Assay medium consisted of RPMI 1640 medium (catalogue number: 11875119) and 10% heat inactivated FBS (Cytvia). U-PLEX Biomarker Assay (cat #K15067L-4) to detect levels of TNF-alpha was purchased from Meso Scale Discovery. Heparinized whole blood from healthy donors/volunteers was obtained through Research Blood Components, LLC.
Test compounds were prepared into a 10 mM DMSO solution and serially diluted into 9 points using a 3-fold dilution in a 96 well plate. A 10× working stock solution of recombinant human IFN-gamma (final concentration of 10 ng/mL) was prepared in assay medium and used to prepare a 10× solution of test compound. 20 μL of 10×IFN-gamma and test compound (or DMSO control) was added to a 96-well plate. 160 μL of heparinized whole blood obtained from healthy donors was dispensed into individual wells of the 96-well plate and placed on a plate shaker (150 rpm) and incubated for 60 min at 37° C. in a CO2 incubator. Subsequently, 20 μL of L18-MDP (final concentration of 100 ng/mL) was added to the appropriate wells and further incubated for 16 hours on a plate shaker (150 rpm) at 37° C. in a CO2 incubator. The final concentration of DMSO was 0.05% (v/v) in all wells. After incubation, 100 μL of DPBS was added per well, mixed by shaking at 500 rpm for 2 minutes, followed by centrifugation (400×g for 10 minutes) and collection of supernatants. TNF-alpha in supernatants was measured using MSD immunoassay (MesoScale Discovery). 4-parametric curve fit was used to determine the test compound concentration that results in 50% reduction of TNF-alpha concentration in supernatant relative to assay controls.

[2] = biological target: T2, RIPK2 and XIAP protein-protein interaction (Homo sapiens, UniProt O43353); test: Inhibition of the interaction of RIPK2 with XIAP (NanoBRET in HEK293T cells); format: cell-based; settings: RIPK2 HaloTag / XIAP NanoLuc, read-out: NanoBRET Scaffolding IC50
T2 construct: the N-terminus of full-length RIPK2 was appended with the HaloTag fusion protein; expressed in transfected cells; host or cells: HEK293T
Summary of the method: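 HEK293T cells transiently co-transfected with HaloTag-RIPK2 (N-terminal) and XIAP-NanoLuc (C-terminal) full-length fusions, grown 24 h at 37° C. in Opti-MEM with 4% FBS. Compounds tested as 10-point 3-fold dilutions; NanoBRET ratio taken as 618 nm acceptor over 460 nm donor emission.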

T2 sequence (O43353 whole entry, the tested form may be a part): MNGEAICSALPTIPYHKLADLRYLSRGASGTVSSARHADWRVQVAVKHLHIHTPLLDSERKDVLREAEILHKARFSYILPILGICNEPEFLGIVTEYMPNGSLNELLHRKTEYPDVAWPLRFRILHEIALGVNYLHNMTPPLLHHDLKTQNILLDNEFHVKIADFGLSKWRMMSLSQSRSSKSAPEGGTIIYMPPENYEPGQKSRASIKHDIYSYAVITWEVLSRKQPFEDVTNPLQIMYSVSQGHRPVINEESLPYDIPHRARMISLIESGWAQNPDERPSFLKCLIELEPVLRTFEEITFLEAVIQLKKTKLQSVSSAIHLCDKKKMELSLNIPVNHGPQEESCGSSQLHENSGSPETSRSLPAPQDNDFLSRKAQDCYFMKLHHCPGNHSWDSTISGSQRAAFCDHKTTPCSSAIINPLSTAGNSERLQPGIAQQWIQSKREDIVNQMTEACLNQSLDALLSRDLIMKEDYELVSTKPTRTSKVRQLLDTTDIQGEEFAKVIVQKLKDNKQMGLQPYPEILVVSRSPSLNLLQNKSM
T1 sequence (O43353 1-299 limits assumed): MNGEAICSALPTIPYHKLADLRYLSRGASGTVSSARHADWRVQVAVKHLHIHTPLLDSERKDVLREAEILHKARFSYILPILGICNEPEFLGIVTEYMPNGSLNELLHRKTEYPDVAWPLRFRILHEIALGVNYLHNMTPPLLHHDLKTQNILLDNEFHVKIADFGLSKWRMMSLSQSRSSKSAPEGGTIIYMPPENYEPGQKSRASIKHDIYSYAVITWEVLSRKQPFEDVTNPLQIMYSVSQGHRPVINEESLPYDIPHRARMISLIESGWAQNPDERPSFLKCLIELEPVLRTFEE

IC50 (RIPK2 enzyme) [nM] | IC50 (human NOD2 signaling) [nM] | IC50 [1] [nM] | IC50 [2] [nM] | Compound
< 2.5 | 4 | 24 | 93 | CC(C)(C)n1cc(NC(=O)Cc2ccc(Oc3ccnc4ccc(S(C)(=N)=O)cc34)c(Cl)c2)cn1 (single isomer, unassigned) [Compound 197, N-(1-(tert-butyl)-1H-pyrazol-4-yl)-2-(3-chloro-4-((6-(S-methylsulfonimidoyl)quinolin-4-yl)oxy)phenyl)acetamide]
< 2.5 | 2.1 | 8.4 | 69.1 | Cc1cc(CC(=O)Nc2cnn(C(C)(C)C)c2)cc(F)c1Oc1ccnc2ccc(C(N)=O)cc12 [Compound 468, 4-(4-(2-((1-(tert-butyl)-1H-pyrazol-4-yl)amino)-2-oxoethyl)-2-fluoro-6-methylphenoxy)quinoline-6-carboxamide]
< 2.5 | 1.2 | 3 | 77.5 | Cc1cc(CC(=O)Nc2cnn(C(C)(C)C)c2)ccc1Oc1ccnc2ccc(S(=N)(=O)C3CC3)cc12 (single isomer, unassigned) [Compound 543, N-(1-(tert-butyl)-1H-pyrazol-4-yl)-2-(4-((6-(cyclopropanesul-fonimidoyl)quinolin-4-yl)oxy)-3-methylphenyl) acetamide]
< 2.5 | 7.2 | 7 | 174 | Cc1cc(CC(=O)Nc2cnn(C(C)(C)C)c2)ccc1Oc1ncnc2ccc(CN3CCNCC3)cc12 [Compound 253, N-(1-(tert-butyl)-1H-pyrazol-4-yl)-2-(3-methyl-4-((6-(piperazin-1-ylmethyl)quinazolin-4-yl)oxy)phenyl)acetamide]
